Assay results as given in patent US5593970A, “Heterocyclic anthracycline analogs” (priority 1994, dated 1997).

How the values were obtained:
MCF7/ADR = assay: Soft agar colony formation disk diffusion assay; assay type: cell-based, human
Text: (§1) A more elaborate version of this fundamental assay, the soft agar colony formation disk diffusion assay was used. This assay defines the relative activity of one particular drug versus a tumoral cell line type. The effect of the test drug against tumoral cells could be measured by its inhibitory capacity against colony formation after the delivery of the compound, in different concentrations on an filter disk(4). A modified technique of this assay was used in order to investigate the antiproliferative activity of candidate compounds. Tumoral cells from solid tumors and ascitic lines were plated separately in a two layer agar matrix. Cell lines to be tested were suspended in an upper layer of 0.4% Noble agar (Difco#00142-01) in RPMI-1066 (Gibco#3201875) at a yield varying between 10^4 to 2×10^5 cells per 60 mm Petri dish. Plating efficiency was determined for each line in order to achieve an optimal number of colonies per dish. Plates were examined before drug administration to confirm a uniform dispersion of single cells. The bottom layer consisted of 0.8% Noble agar, 0.8% Tryptic Soy Broth (difco#0037001)in CMRL-1066/Fischer's. The bottom layers were used within 2 and 9 days of preparation. Plated dishes (bottom layer of agar, upper layer of cells and administered drug were incubated in humidified atmosphere at 37° C., 5% CO2 for 10-20 days depending upon the time necessary to observe adequate colonies (defined as a cell aggregate of more than 50 cells) both control and drug inhibited. Drugs were administered on a paper filter disk (Whatman No. 1) of 6.5 mm diameter placed on the upper layer at 1/3 distance from the edge of the dish. The anti-clonogenic activity of the compounds was measured as the zone of inhibition from the disk edge to the most proximal colonies. This zone of inhibition was checked on an inverted microscope (40×) and was measured with a micrometer mounted in the eyepiece. The ocular micrometer was calibrated with a stage micrometer set for a particular combination of ocular and objective lenses. […] We made a modification of the initial technique by not plating a solid tumor and a leukemia simultaneously in the same Petri dish. Anti-clonogenic tests performed on leukemia cell line have helped in the discovery of the majority of current clinically used cytostatic drugs. Our tests on solid tumor lines (animal or human) may help define active compounds with solid tumor specificity. […] HUMAN TUMORS. […] LS180 (13) and BE1(14) were obtained from the Oncology Dept. of the Montreal General Hospital. […] Cell lines were routinely passaged twice a week by trypsinization and maintained in 25, or 75-sq. cm Falcon Plastic flasks at 37° C., 5% CO2 in humidified atmosphere. Both compounds were dissolved in DMSO (1 mg/100 ul) and brought to final volume (250 ul) with Millipore deionized sterile water. Further dilutions were made with […] volume of 25 ul of freshly prepared solution was placed on the filter disk and allowed to dry.

MCF7 = assay: Soft agar colony formation disk diffusion assay; assay type: cell-based, human
Text: as §1

tumor cell lines = assay: Tumor clonogenic assay, overall; assay type: cell-based
Text: For the IN VITRO test, we chose a tumor clonogenic assay which measures the ability of tumoral cells to form colonies (multicellular growth units) as a result of cell division in semisolid agar support (2,3). A more elaborate version of this fundamental assay, the soft agar colony formation disk diffusion assay was used. This assay defines the relative activity of one particular drug versus a tumoral cell line type. The effect of the test drug against tumoral cells could be measured by its inhibitory capacity against colony formation after the delivery of the compound, in different concentrations on an filter disk(4).
A modified technique of this assay was used in order to investigate the antiproliferative activity of candidate compounds. Tumoral cells from solid tumors and ascitic lines were plated separately in a two layer agar matrix. Cell lines to be tested were suspended in an upper layer of 0.4% Noble agar (Difco#00142-01) in RPMI-1066 (Gibco#3201875) at a yield varying between 10^4 to 2×10^5 cells per 60 mm Petri dish. Plating efficiency was determined for each line in order to achieve an optimal number of colonies per dish. Plates were examined before drug administration to confirm a uniform dispersion of single cells. The bottom layer consisted of 0.8% Noble agar, 0.8% Tryptic Soy Broth (difco#0037001)in CMRL-1066/Fischer's. The bottom layers were used within 2 and 9 days of preparation. Plated dishes (bottom layer of agar, upper layer of cells and administered drug were incubated in humidified atmosphere at 37° C., 5% CO2 for 10-20 days depending upon the time necessary to observe adequate colonies (defined as a cell aggregate of more than 50 cells) both control and drug inhibited. Drugs were administered on a paper filter disk (Whatman No. 1) of 6.5 mm diameter placed on the upper layer at 1/3 distance from the edge of the dish. The anti-clonogenic activity of the compounds was measured as the zone of inhibition from the disk edge to the most proximal colonies. This zone of inhibition was checked on an inverted microscope (40×) and was measured with a micrometer mounted in the eyepiece. The ocular micrometer was calibrated with a stage micrometer set for a particular combination of ocular and objective lenses.
200 units of activity are equivalent to 6.5 mm distance from the disk edge to the first colonies (5). […] We made a modification of the initial technique by not plating a solid tumor and a leukemia simultaneously in the same Petri dish. Anti-clonogenic tests performed on leukemia cell line have helped in the discovery of the majority of current clinically used cytostatic drugs. Our tests on solid tumor lines (animal or human) may help define active compounds with solid tumor specificity. This specific activity would be indicated by a higher level of cloning inhibition in solid tumors versus leukemias (6).

LS180 = assay: Soft agar colony formation disk diffusion assay; assay type: cell-based, human
Text: as §1

HT29 = assay: Soft agar colony formation disk diffusion assay; assay type: cell-based, human
Text: as §1, with “This assay defines the relative activity of one particular drug versus a tumoral cell line type.” left out, “Plates were examined before drug administration to confirm a uniform dispersion of single cells.” left out, “dish.” for “dish. Anti-clonogenic tests performed on leukemia cell line have helped in the discovery of the majority of current clinically used cytostatic drugs. Our tests on solid tumor lines (animal or human) may help define active compounds with solid tumor specificity.”

MATB.WT = assay: Soft agar colony formation disk diffusion assay; assay type: cell-based, rat
Text: (§2) A more elaborate version of this fundamental assay, the soft agar colony formation disk diffusion assay was used. This assay defines the relative activity of one particular drug versus a tumoral cell line type. The effect of the test drug against tumoral cells could be measured by its inhibitory capacity against colony formation after the delivery of the compound, in different concentrations on an filter disk(4). A modified technique of this assay was used in order to investigate the antiproliferative activity of candidate compounds. Tumoral cells from solid tumors and ascitic lines were plated separately in a two layer agar matrix. Cell lines to be tested were suspended in an upper layer of 0.4% Noble agar (Difco#00142-01) in RPMI-1066 (Gibco#3201875) at a yield varying between 10^4 to 2×10^5 cells per 60 mm Petri dish. Plating efficiency was determined for each line in order to achieve an optimal number of colonies per dish. Plates were examined before drug administration to confirm a uniform dispersion of single cells. The bottom layer consisted of 0.8% Noble agar, 0.8% Tryptic Soy Broth (difco#0037001)in CMRL-1066/Fischer's. The bottom layers were used within 2 and 9 days of preparation. Plated dishes (bottom layer of agar, upper layer of cells and administered drug were incubated in humidified atmosphere at 37° C., 5% CO2 for 10-20 days depending upon the time necessary to observe adequate colonies (defined as a cell aggregate of more than 50 cells) both control and drug inhibited. Drugs were administered on a paper filter disk (Whatman No. 1) of 6.5 mm diameter placed on the upper layer at 1/3 distance from the edge of the dish. The anti-clonogenic activity of the compounds was measured as the zone of inhibition from the disk edge to the most proximal colonies. This zone of inhibition was checked on an inverted microscope (40×) and was measured with a micrometer mounted in the eyepiece. The ocular micrometer was calibrated with a stage micrometer set for a particular combination of ocular and objective lenses. […] We made a modification of the initial technique by not plating a solid tumor and a leukemia simultaneously in the same Petri dish. Anti-clonogenic tests performed on leukemia cell line have helped in the discovery of the majority of current clinically used cytostatic drugs. Our tests on solid tumor lines (animal or human) may help define active compounds with solid tumor specificity. […] Murine tumors were maintained IN VIVO in order to diminish the selection of subpopulations of cells normally present in the heterogenous IN VIVO tumor. The actual drug sensitivity assay was done IN VITRO. For these experiments cells from freshly excised tumors or from ascitic fluids were maintained in RPMI-1066. Both compounds were dissolved in DMSO (1 mg/100 ul) and brought to final volume (250 ul) with Millipore deionized sterile water. Further dilutions were made with […] volume of 25 ul of freshly prepared solution was placed on the filter disk and allowed to dry.

MATB/ADR = assay: Soft agar colony formation disk diffusion assay; assay type: cell-based, rat
Text: as §2

B16 = assay: Soft agar colony formation disk diffusion assay; assay type: cell-based, murine
Text: as §2

M5076 = assay: Soft agar colony formation disk diffusion assay; assay type: cell-based, murine
Text: as §2

P388/ADR = assay: Soft agar colony formation disk diffusion assay; assay type: cell-based, murine
Text: as §2

P388 = assay: Soft agar colony formation disk diffusion assay; assay type: cell-based, murine
Text: as §2

tumor = details: cited from earlier work

With COC(=O)[C@H]1CC2=C(C(=O)c3cc4ccccc4c(O)c3C2=O)[C@H](O[C@H]2C[C@H](NC(=O)C(F)(F)F)[C@H](O)[C@H](C)O2)O1 [BCH-706] the “cross resistance with adriamycin, MCF7/ADR vs MCF7” value (MCF7/ADR) was “lack of cross resistance with adriamycin”, the zone of inhibition (MCF7/ADR; 10 μg/DISK) was 91.5 ± 8.6 Zone Units and the zone of inhibition (MCF7/ADR; 100 μg/DISK) was 183.0 Zone Units. For the same compound, the zone of inhibition (MCF7; 10 μg/DISK) was 103.7 ± 25.5 Zone Units, the zone of inhibition (MCF7; 100 μg/DISK) was 213.5 ± 43.1 Zone Units and the “activity and specificity in words” value (tumor cell lines) was “most active”.
For CCOC(=O)C1Cc2c(O)c3c(c(O)c2CS1)C(=O)c1ccccc1C3=O (centres unmarked) [BCH-713, 3-carbethoxy-5,12-dihydroxy-1,2,3,4-tetrahydro-(2-sulfur)naphthacene-6,11-dione], the zone of inhibition (LS180; 10 μg/DISK) was 0 Zone Units, the zone of inhibition (LS180; 100 μg/DISK) was 45.7 ± 21.5 Zone Units and the zone of inhibition (MCF7/ADR; 10 μg/DISK) was 24.0 ± 8.6 Zone Units. For the same compound, the zone of inhibition (MCF7/ADR; 100 μg/DISK) was 94.5 ± 64.7 Zone Units, the zone of inhibition (MCF7; 10 μg/DISK) was 0 Zone Units and the zone of inhibition (MCF7; 100 μg/DISK) was 0 Zone Units. For the same compound, the zone of inhibition (HT29; 10 μg/DISK) was 0 Zone Units, the zone of inhibition (HT29; 100 μg/DISK) was 0 Zone Units and the zone of inhibition (MATB.WT; 10 μg/DISK) was 0 Zone Units. The zone of inhibition (MATB.WT; 100 μg/DISK) was 27.4 ± 4.3 Zone Units, the zone of inhibition (MATB/ADR; 10 μg/DISK) was 0 Zone Units and the zone of inhibition (MATB/ADR; 100 μg/DISK) was 0 Zone Units. It also gave a zone of inhibition (B16; 10 μg/DISK) of 0 Zone Units, a zone of inhibition (B16; 100 μg/DISK) of 24.4 ± 8.6 Zone Units and a zone of inhibition (M5076; 10 μg/DISK) of 0 Zone Units. It also gave a zone of inhibition (M5076; 100 μg/DISK) of 42.7 ± 8.6 Zone Units, a zone of inhibition (P388/ADR; 10 μg/DISK) of 0 Zone Units and a zone of inhibition (P388/ADR; 100 μg/DISK) of 61.0 ± 0.0 Zone Units. For the same compound, the zone of inhibition (P388; 10 μg/DISK) was 0 Zone Units and the zone of inhibition (P388; 100 μg/DISK) was 45.7 ± 21.5 Zone Units.
Work on COCOCC(=O)C1CC2=C(CO1)C(=O)c1c(cc3ccccc3c1O)C2=O (centres unmarked) [BCH-714, 3-(2-methoxymethoxy)aceto-11-hydroxy-1,2,3,4-tetrahydro-(2-oxygen)-napthacene-5,12-dione] yielded a zone of inhibition (LS180; 10 μg/DISK) of 9.0 ± 4.2 Zone Units, a zone of inhibition (LS180; 100 μg/DISK) of 42.0 ± 26.0 Zone Units and a zone of inhibition (MCF7/ADR; 10 μg/DISK) of 0 Zone Units. For the same compound, the zone of inhibition (MCF7/ADR; 100 μg/DISK) was 0 Zone Units, the zone of inhibition (MCF7; 10 μg/DISK) was 0 Zone Units and the zone of inhibition (MCF7; 100 μg/DISK) was 0 Zone Units. For the same compound, the zone of inhibition (HT29; 10 μg/DISK) was 0 Zone Units, the zone of inhibition (HT29; 100 μg/DISK) was 0 Zone Units and the zone of inhibition (MATB.WT; 10 μg/DISK) was 0 Zone Units. The zone of inhibition (MATB.WT; 100 μg/DISK) was 0 Zone Units, the zone of inhibition (MATB/ADR; 10 μg/DISK) was 0 Zone Units and the zone of inhibition (MATB/ADR; 100 μg/DISK) was 0 Zone Units. It also gave a zone of inhibition (B16; 10 μg/DISK) of 0 Zone Units, a zone of inhibition (B16; 100 μg/DISK) of 0 Zone Units and a zone of inhibition (M5076; 10 μg/DISK) of 15.5 ± 5.0 Zone Units. The zone of inhibition (M5076; 100 μg/DISK) was 55.0 ± 8.4 Zone Units, the zone of inhibition (P388/ADR; 10 μg/DISK) was 0 Zone Units and the zone of inhibition (P388/ADR; 100 μg/DISK) was 0 Zone Units. The zone of inhibition (P388; 10 μg/DISK) was 0 Zone Units and the zone of inhibition (P388; 100 μg/DISK) was 27.0 ± 4.2 Zone Units.
In the case of CC1OC2CC(=O)OC2C2=C1C(=O)c1c(O)c3c(c(O)c1C2=O)C1CC(O)C3(O)C(C)O1 (centres unmarked) [Granaticin], the antitumor activity (tumor) is listed as “antitumor activity”.
